Ends that are not written are not given here.
Experiments:
A/Roma-ISS/2/08 H1N1 = conditions: read-out: EC50 (effective concentration 50%); A/Roma-ISS/2/08 H1N1, MDCK cells
A/Parma/24/09 H1N1 = conditions: read-out: EC50 (effective concentration 50%); A/Parma/24/09 H1N1, MDCK cells
Cytotoxicity assay = type: cell-based, canine; conditions: dog, MDCK cells, read-out: CC50 (cytotoxic concentration 50%)
Experimental: To establish the maximal non-cytotoxic dose of bLf and its derivatives, two-fold serial dilutions of each substance in culture medium were incubated at 37° C. with confluent MDCK cells grown in 96-well tissue culture microplates (Nalge Europe Ltd, Neerijse, Belgium). After 24 h, the following parameters were evaluated: cell morphology and viability (determined by neutral red staining) were examined by light microscopy and cell proliferation was evaluated quantitatively by microscopic counts after dispersion into individual cells with trypsin.

A/Parma/05/06 H3N2 = conditions: read-out: EC50 (effective concentration 50%); A/Parma/05/06 H3N2, MDCK cells
Peptide stability = type: physicochemical

Sequence	EC50 (A/Roma-ISS/2/08 H1N1) [nM]	EC50 (A/Parma/24/09 H1N1) [nM]	CC50 at 24 h (Cytotoxicity assay) [nM]	EC50 (A/Parma/05/06 H3N2) [nM]	stability of the peptide (in words) (Peptide stability)
AGDDQGLDKCVPNSKEK [SEQ ID NO: 2, AGDDQGLDKCVPNSKEK]	0.0037	0.0034	> 25000	0.0073	
NGESTADWAKN (bovine lactoferrin peptide from 553 aa to 563 aa) [SEQ ID NO: 3, bLf C-lobe peptide, residues 553-563]					poor stability
SKHSSLDCVLRP [SEQ ID NO: 1, SKHSSLDCVLRP]	0.004	0.0031	> 25000	0.0058	
NGESSADWAKN [SEQ ID NO: 4, NGESSADWAKN]			> 25000	0.0225	

Source: US20140322196A1 (priority 2011, published 2014)
